Test results as given in ChEMBL document CHEMBL3885861, “Open TG-GATES”.

Species: Rattus norvegicus
Assay: Open TG-GATES - Regimen: Single
Assay type: toxicity, organism-based, Sprague-Dawley
Set-up: regimen Single, gender Male, age 6 weeks
Details: in vivo, po, 100 mg/kg, route gavage, dose level Low; for APTT / Bas / Eos / Fbg / Hb / Ht / Lym / MCH / MCHC / MCV / Mono / Neu / PT / Plat / RBC / Ret / WBC: tissue Blood; for KIDNEY_L / KIDNEY_R / KIDNEY_TOTAL: tissue Kidney; for LIVER: tissue Liver; for A/G / ALP / ALT / AST / BUN / CRE / Ca / Cl / DBIL / GLC / IP / K / LDH / Na / PL / RALB / TBIL / TC / TG / TP / gamma-GTP: tissue Plasma

`CCC1(c2ccccc2)C(=O)NC(=O)NC1=O` [PHENOBARBITAL] gave a TERMINAL_BW (3 h) of 225.5 g, an APTT (3 h) of 20.6 s and a Bas (3 h) of 0%. It also gave an Eos (3 h) of 1%, a Fbg (3 h) of 220.6 mg/dL and a Hb (3 h) of 13.7 g/dL. For the same compound, the Ht (3 h) was 37.8%, the Lym (3 h) was 76.6% and the MCH (3 h) was 22.2 pg. It also gave an MCHC (3 h) of 36.1%, an MCV (3 h) of 61.3 fL and a Mono (3 h) of 3.4%. For the same compound, the Neu (3 h) was 18.2%, the PT (3 h) was 12 s and the Plat (3 h) was 126.2 x10_4/uL. It also gave an RBC (3 h) of 616.6 x10_4/ul, a Ret (3 h) of 7.8% and a WBC (3 h) of 85.2 x10_2/uL. The KIDNEY_L (3 h) was 1 g, the KIDNEY_R (3 h) was 1 g and the KIDNEY_TOTAL (3 h) was 2.1 g. The LIVER (3 h) was 10.1 g, the A/G (3 h) was 1.6 and the ALP (3 h) was 991 IU/L. For the same compound, the ALT (3 h) was 33.4 IU/L, the AST (3 h) was 67.4 IU/L and the BUN (3 h) was 8.4 mg/dL. The CRE (3 h) was 0.3 mg/dL, the Ca (3 h) was 10.7 mg/dL and the Cl (3 h) was 101.4 meq/L. The DBIL (3 h) was 0.064 mg/dL, the GLC (3 h) was 179.4 mg/dL and the IP (3 h) was 9.7 mg/dL. The K (3 h) was 4.4 meq/L, the LDH (3 h) was 168.4 IU/L and the Na (3 h) was 139.8 meq/L. It also gave a PL (3 h) of 156.6 mg/dL, an RALB (3 h) of 3.3 g/dL and a TBIL (3 h) of 0.1 mg/dL. For the same compound, the TC (3 h) was 83.4 mg/dL, the TG (3 h) was 83.8 mg/dL and the TP (3 h) was 5.3 g/dL. For the same compound, the gamma-GTP (3 h) was 1 IU/L, the TERMINAL_BW (6 h) was 222.4 g and the APTT (6 h) was 18 s. The Bas (6 h) was 0.2%, the Eos (6 h) was 0.8% and the Fbg (6 h) was 237.8 mg/dL. For the same compound, the Hb (6 h) was 13.7 g/dL, the Ht (6 h) was 37.9% and the Lym (6 h) was 79.8%. For the same compound, the MCH (6 h) was 21.4 pg, the MCHC (6 h) was 36.2% and the MCV (6 h) was 59 fL. It also gave a Mono (6 h) of 3.4%, a Neu (6 h) of 15% and a PT (6 h) of 11.8 s. For the same compound, the Plat (6 h) was 124.2 x10_4/uL, the RBC (6 h) was 643 x10_4/ul and the Ret (6 h) was 8.1%. For the same compound, the WBC (6 h) was 90.7 x10_2/uL, the KIDNEY_L (6 h) was 1 g and the KIDNEY_R (6 h) was 0.9 g. For the same compound, the KIDNEY_TOTAL (6 h) was 1.9 g, the LIVER (6 h) was 9.4 g and the A/G (6 h) was 1.6. It also gave an ALP (6 h) of 1012 IU/L, an ALT (6 h) of 31.8 IU/L and an AST (6 h) of 64.8 IU/L. It also gave a BUN (6 h) of 7.6 mg/dL, a CRE (6 h) of 0.4 mg/dL and a Ca (6 h) of 10.7 mg/dL. It also gave a Cl (6 h) of 100.4 meq/L, a DBIL (6 h) of 0.074 mg/dL and a GLC (6 h) of 191.8 mg/dL. It also gave an IP (6 h) of 10.1 mg/dL, a K (6 h) of 3.9 meq/L and an LDH (6 h) of 173.2 IU/L. For the same compound, the Na (6 h) was 139.6 meq/L, the PL (6 h) was 138.8 mg/dL and the RALB (6 h) was 3.3 g/dL. It also gave a TBIL (6 h) of 0.1 mg/dL, a TC (6 h) of 71 mg/dL and a TG (6 h) of 68.8 mg/dL. For the same compound, the TP (6 h) was 5.5 g/dL, the gamma-GTP (6 h) was 0.8 IU/L and the TERMINAL_BW (9 h) was 220.3 g. It also gave an APTT (9 h) of 19.6 s, a Bas (9 h) of 0.4% and an Eos (9 h) of 0.8%. The Fbg (9 h) was 215.6 mg/dL, the Hb (9 h) was 13.8 g/dL and the Ht (9 h) was 38.2%. The Lym (9 h) was 74.6%, the MCH (9 h) was 21.6 pg and the MCHC (9 h) was 36.2%. The MCV (9 h) was 59.6 fL, the Mono (9 h) was 2.6% and the Neu (9 h) was 20.6%. It also gave a PT (9 h) of 12.4 s, a Plat (9 h) of 124.9 x10_4/uL and an RBC (9 h) of 640.6 x10_4/ul. It also gave a Ret (9 h) of 7.4%, a WBC (9 h) of 90 x10_2/uL and a KIDNEY_L (9 h) of 1 g. It also gave a KIDNEY_R (9 h) of 1 g, a KIDNEY_TOTAL (9 h) of 1.9 g and an LIVER (9 h) of 9.2 g. It also gave an A/G (9 h) of 1.6, an ALP (9 h) of 848.2 IU/L and an ALT (9 h) of 25.2 IU/L. It also gave an AST (9 h) of 60.4 IU/L, a BUN (9 h) of 10.4 mg/dL and a CRE (9 h) of 0.3 mg/dL. For the same compound, the Ca (9 h) was 10.4 mg/dL, the Cl (9 h) was 101 meq/L and the DBIL (9 h) was 0.064 mg/dL. For the same compound, the GLC (9 h) was 196.4 mg/dL, the IP (9 h) was 8.7 mg/dL and the K (9 h) was 3.9 meq/L. For the same compound, the LDH (9 h) was 154.4 IU/L, the Na (9 h) was 140.4 meq/L and the PL (9 h) was 129.8 mg/dL. For the same compound, the RALB (9 h) was 3.4 g/dL, the TBIL (9 h) was 0.1 mg/dL and the TC (9 h) was 64.4 mg/dL. The TG (9 h) was 55.6 mg/dL, the TP (9 h) was 5.5 g/dL and the gamma-GTP (9 h) was 0.6 IU/L. The TERMINAL_BW (24 h) was 234.5 g, the APTT (24 h) was 21 s and the Bas (24 h) was 0.8%. It also gave an Eos (24 h) of 1%, a Fbg (24 h) of 217.8 mg/dL and a Hb (24 h) of 13.5 g/dL. It also gave a Ht (24 h) of 37.2%, a Lym (24 h) of 77.8% and an MCH (24 h) of 22.2 pg. For the same compound, the MCHC (24 h) was 36.2%, the MCV (24 h) was 61.3 fL and the Mono (24 h) was 2.6%. For the same compound, the Neu (24 h) was 17.8%, the PT (24 h) was 11.8 s and the Plat (24 h) was 122.9 x10_4/uL. For the same compound, the RBC (24 h) was 607.6 x10_4/ul, the Ret (24 h) was 6.6% and the WBC (24 h) was 114.9 x10_2/uL. For the same compound, the KIDNEY_L (24 h) was 1.1 g, the KIDNEY_R (24 h) was 1.1 g and the KIDNEY_TOTAL (24 h) was 2.3 g. For the same compound, the LIVER (24 h) was 12 g, the A/G (24 h) was 1.6 and the ALP (24 h) was 1006.8 IU/L. The ALT (24 h) was 39 IU/L, the AST (24 h) was 70.6 IU/L and the BUN (24 h) was 14.4 mg/dL. It also gave a CRE (24 h) of 0.4 mg/dL, a Ca (24 h) of 10.8 mg/dL and a Cl (24 h) of 102.4 meq/L. For the same compound, the DBIL (24 h) was 0.062 mg/dL, the GLC (24 h) was 183.4 mg/dL and the IP (24 h) was 7.3 mg/dL. It also gave a K (24 h) of 3.8 meq/L, an LDH (24 h) of 181.4 IU/L and a Na (24 h) of 142 meq/L. For the same compound, the PL (24 h) was 132.6 mg/dL, the RALB (24 h) was 3.4 g/dL and the TBIL (24 h) was 0.1 mg/dL. It also gave a TC (24 h) of 64 mg/dL, a TG (24 h) of 105.4 mg/dL and a TP (24 h) of 5.6 g/dL. For the same compound, the gamma-GTP (24 h) was 0.8 IU/L.
